Laboratory results as given in publication PMC11676693, “Population Pharmacokinetic and Pharmacodynamic Study of Palbociclib in Children and Young Adults with Recurrent, Progressive, or Refractory Brain Tumors” (Pharmaceutics, 2024).
Like-named read-outs stand apart in the source and are kept apart here.

Key:
[1] = in vivo
Procedure: The patients included in this palbociclib population pharmacokinetic/pharmacodynamic analysis were treated in the phase I clinical trial PBTC-042 (NCT02255461), which evaluated single-agent oral palbociclib therapy in children and young adults with recurrent, progressive, or refractory brain tumors. Details of this clinical trial have been reported elsewhere. In adults treated with palbociclib, myelosuppression has been the main dose-limiting toxicity (DLT) reported, and the toxicity is greater in more heavily pretreated patients. Thus, patients in this pediatric trial were divided into two strata: stratum I included patients who were not heavily pretreated, while stratum II included heavily pretreated patients. The starting dosage for stratum I was 50 mg/m^2, with planned dose escalations to 75 mg/m^2 and 95 mg/m^2. The planned starting dosage for stratum II was one dosage level below the MTD for stratum I. The Institutional Review Board approved this trial and written informed consent was obtained from patients, parents, or legal guardians before the onset of any study procedures. Assent was obtained from patients as appropriate based on local institutional guidelines.
Pharmacokinetic studies of oral palbociclib (PD-0332991) were performed on course 1, day 1 and day 21 to evaluate the population pharmacokinetics of palbociclib. On day 2 of course 1, the palbociclib dose was held. On day 1 of course 1, palbociclib single-dose serial blood samples were drawn pre-dose and 0.5, 1, 2, 4, 8 (±1), 24 (±4), and 48 (±4) hours (immediately prior to the day 3 dose) after the oral dose. On day 21 of course 1, palbociclib steady-state serial blood samples were collected pre-dose and 1, 2, 4, 8 (±1), and 24 (±4) hours (immediately prior to the day 22 dose) after the dose.
At each time point, whole blood (2 mL) was collected in K2EDTA tubes, spun to plasma within one hour of collection, and stored at −20 °C until analysis. Palbociclib plasma concentrations were measured using a validated liquid chromatography–mass spectrometric assay method with a lower limit of quantitation (LLOQ) of 1 ng/mL [14].
Palbociclib serum concentration–time data from course 1, day 1 and day 21 were analyzed using nonlinear mixed-effects modeling implemented in Monolix software version 2023R1 (Lixoft, Antony, France) using the Stochastic Approximation Expectation Maximization (SAEM) algorithm. Inter-individual and inter-occasion variabilities were assumed to be log-normally distributed. A proportional residual error model was used to quantify the unexplained variability of the model. Error terms were assumed to be normally distributed. A one-compartment model with first-order absorption, the absorption lag time, and first-order elimination was used. Specifically, the PK parameters estimated included the absorption lag time (Tlag), absorption rate constant (ka), apparent oral volume (V/F), and apparent oral clearance (CL/F), where F was the bioavailability, which was not identifiable given only oral dosing was used. The inter-individual variability was estimated for all parameters. Additionally, the inter-occasion variability was estimated for the CL/F. The palbociclib dosage (i.e., the palbociclib dosage normalized to the patient body surface area (BSA)) was used as the model input. Data below the limit of quantitation (BLQ) were censored according to the Beal method M3 [17], as implemented in Monolix. […]

[2] = parameters: method as in PMID 37553297; settings: mean (range), 12 children, cited from earlier work
[3] = tested on: proliferating neutrophils in the bone marrow compartment (ANC); assay: Population pharmacodynamic model of ANC (neutrophil dynamics); format: in vivo, children and young adults
Procedure: (§1) A complete blood count (CBC) with differential was performed pre-therapy, weekly during course 1, and then weekly during courses 2 to 26. The CBC provided platelet and absolute neutrophil counts (ANCs).
(§2) The model describing the ANC and platelet dynamics has been previously described. The model for the ANC consisted of a bone marrow compartment with proliferating neutrophils, three transient compartments that represent the maturation process of the neutrophils from blasts to circulating neutrophils, and a circulating neutrophil compartment. The model included the negative feedback effects of endogenous G-CSF, which affected the growth rate of proliferating cells in a manner inversely proportional to the concentration of circulating neutrophils. We assumed that palbociclib only affected the proliferating neutrophils in the bone marrow compartment. We used a similar structural model for platelet dynamics. The model describing the neutrophil dynamics is shown in Equations (1)–(5) and Figure S1. (1) NPBM/dt=kinKM/KM+NcircIC50n/IC50n+Cpalblociclibn−kbpNPBM (2) dNT1/dt=kbpNPBM−NT1 (3) dNT2/dt=kbpNT1−NT2 (4) dNT3/dt=kbpNT2−NT3 (5) dNcirc/dt=kpbNT3−koutNcirc
The model parameters were as follows: NPBM: proliferating bone marrow stem cells; NT1, NT2, and NT3: transient compartments describing the maturation phases of the neutrophils; Ncirc: circulating neutrophils. Note that we were only able to observe this compartment. The model parameters were defined as follows: kin (1/days): the stem cell proliferation rate; kbp (1/days): the transition rate between transient compartments (the mean transition time from the bone marrow to the circulating neutrophils is 4/kbp); kout (1/days): the elimination rate of circulating neutrophils; KM (10^3/µL): the half-saturation effect of the G-CSF negative feedback; IC50 (nM) and n; the half-saturation effect and Hill coefficient of the palbociclib effects on the bone marrow; and Cpalbociclib (nM): the concentration of palbociclib in the plasma. Prior to treatment, the system was assumed to be steady-state, where Ncirc0 was the steady-state circulating neutrophil level. The following relationship between the model parameters was needed for the system to maintain steady state prior to treatment (Equation (6)). (6) KM=kbp/kin−kbpNcirc0
For this relationship to be positive, kin > kpb. To ensure this requirement, we defined kpb = fkbp·kin where fkbp ∈ [0, 1] and estimated fkbp. In addition, the initial conditions for the system at steady state (i.e., the steady-state solution to the system in the absence of the drug) are (Equation (7)) (7) kout/kbpNcirc0, kout/kbpNcirc0, kout/kbpNcirc0, kout/kbpNcirc0, Ncirc0
The parameters for the pharmacodynamic model were estimated using nonlinear mixed-effects modeling with the SAEM algorithm as implemented in the Monolix® software version 2023R1 (Lixoft, Antony, France). The palbociclib pharmacokinetics were fixed to each individual’s post hoc estimated parameters (as determined above). The inter-individual and inter-occasion variability were assumed to be log-normally distributed for all parameters except fkbp, which was assumed to be a logit distribution, so its value will be between 0 and 1. A proportional residual error model was used to quantify the unexplained variability of the model. Error terms were assumed to be normally distributed.

[4] = cited from earlier work
[5] = tested on: platelets (PLT); assay: Population pharmacodynamic model of platelet (PLT) dynamics; format: in vivo, children and young adults
Procedure: as §1
as §2, with “The model describing the neutrophil dynamics is shown in Equations (1)–(5) and Figure S1. (1) NPBM/dt=kinKM/KM+NcircIC50n/IC50n+Cpalblociclibn−kbpNPBM (2) dNT1/dt=kbpNPBM−NT1 (3) dNT2/dt=kbpNT1−NT2 (4) dNT3/dt=kbpNT2−NT3 (5) dNcirc/dt=kpbNT3−koutNcirc” left out
The parameters for the pharmacodynamic model were estimated using nonlinear mixed-effects modeling with the SAEM algorithm as implemented in the Monolix® software version 2023R1 (Lixoft, Antony, France). The palbociclib pharmacokinetics were fixed to each individual’s post hoc estimated parameters (as determined above). […] A proportional residual error model was used to quantify the unexplained variability of the model. […]

[6] = median (5th–95th percentile), individual model estimates, first two courses

CC(=O)c1c(C)c2cnc(Nc3ccc(N4CCNCC4)cn3)nc2n(C2CCCC2)c1=O [palbociclib]
Inter-patient variability (IIV) of CL/F ([1]; human): 0.24 | absorption rate constant ([1]; human): 0.48 h⁻¹ | decrease of inter-patient variability of CL/F with inclusion of AST ([1]; human): 10% | fold lower apparent oral clearance ([1]; human, po): 2 fold | effect of concomitant drugs as covariates on CL/F [1]: None of the concomitant drugs considered as covariates were significant | steady state apparent oral clearance ([2]; capsule and liquid formulations): 40.4 (21.1–102.0) L/h/m^2 | half-life [2]: 27.9 (4.5–86.8) hours | IC50 ([3]; Homo sapiens, Neutrophil, read-out: IC50 (half-saturation effect of palbociclib on the bone marrow)): 384 nM | cumulative nature of decreases in ANCs ([3]; courses 3 and 4 predicted from courses 1 and 2): not cumulative | time individuals had grade 3 or greater neutropenia ([3]; median (5th–95th percentile) (abstract)): 4 (0, 21) days | ANC nadir ([3]; median (5th–95th percentile), first two courses): 1.0 (0.4, 3.3) × 10^3/µL | time below an ANC of 0.5 × 10^3/µL (grade 4 neutropenia) [3, 6]: 0 (0, 11) days/course | time below an ANC of 1.0 × 10^3/µL (grade 3 neutropenia) [3, 6]: 4 (0, 21) days/course | time below an ANC of 1.5 × 10^3/µL (grade 2 neutropenia) [3, 6]: 15 (0, 35) days/course | apparent oral clearance ([4]; Courlet, 45 women with metastatic breast cancer, two-compartment model): 67 L/h | apparent oral clearance ([4]; Courlet, 45 women with metastatic breast cancer): 39 L/h/m^2 | apparent oral clearance ([4]; Royer, adults, 124 patients): 34 L/h/m^2 | apparent oral clearance ([4]; Royer, adults, therapeutic drug monitoring data, 124 patients): 58 L/h | apparent oral clearance ([4]; adults, 143 patients): 34 L/h/m^2 | apparent oral clearance ([4]; adults, therapeutic drug monitoring data, 143 patients): 57 L/h | increase of apparent oral clearance ([4]; taken under fasting conditions along with concomitant proton pump inhibitors): 56% | IC50 ([5]; Homo sapiens, Platelet, read-out: IC50 (half-saturation effect of palbociclib on the bone marrow)): 559 nM | individuals with grade 1 (<100 ×) or greater thrombocytopenia ([5]; individual model estimates, first two courses, 31 individuals): three
